Active and inactive are the calls of the source.
Key:
[1] = target: T1, Peroxisomal acyl-coenzyme A oxidase 3 (Homo sapiens, UniProt O15254)
T1 sequence (O15254 whole entry): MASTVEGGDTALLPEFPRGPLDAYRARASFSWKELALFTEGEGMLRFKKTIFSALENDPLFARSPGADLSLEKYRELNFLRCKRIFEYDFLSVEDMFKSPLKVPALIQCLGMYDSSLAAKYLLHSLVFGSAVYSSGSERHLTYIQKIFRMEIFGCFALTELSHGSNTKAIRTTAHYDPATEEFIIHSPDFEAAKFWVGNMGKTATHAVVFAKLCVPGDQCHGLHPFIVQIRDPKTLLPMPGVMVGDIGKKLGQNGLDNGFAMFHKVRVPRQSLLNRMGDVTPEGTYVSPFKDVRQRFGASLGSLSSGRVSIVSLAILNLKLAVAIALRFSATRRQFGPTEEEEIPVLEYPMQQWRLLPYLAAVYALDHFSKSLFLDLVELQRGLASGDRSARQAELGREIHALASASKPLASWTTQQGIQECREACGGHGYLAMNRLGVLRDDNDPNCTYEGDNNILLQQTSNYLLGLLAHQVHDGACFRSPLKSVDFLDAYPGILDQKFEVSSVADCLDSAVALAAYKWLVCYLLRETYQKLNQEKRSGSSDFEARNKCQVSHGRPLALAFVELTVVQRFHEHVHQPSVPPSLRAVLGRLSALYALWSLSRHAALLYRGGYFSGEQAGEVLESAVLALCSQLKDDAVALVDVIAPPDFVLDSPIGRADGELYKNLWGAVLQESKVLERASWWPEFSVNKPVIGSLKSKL

DNA topoisomerase 2-beta = DNA topoisomerase 2-beta (Homo sapiens, UniProt Q02880)
DNA topoisomerase 2-beta, sequence (Q02880 whole entry): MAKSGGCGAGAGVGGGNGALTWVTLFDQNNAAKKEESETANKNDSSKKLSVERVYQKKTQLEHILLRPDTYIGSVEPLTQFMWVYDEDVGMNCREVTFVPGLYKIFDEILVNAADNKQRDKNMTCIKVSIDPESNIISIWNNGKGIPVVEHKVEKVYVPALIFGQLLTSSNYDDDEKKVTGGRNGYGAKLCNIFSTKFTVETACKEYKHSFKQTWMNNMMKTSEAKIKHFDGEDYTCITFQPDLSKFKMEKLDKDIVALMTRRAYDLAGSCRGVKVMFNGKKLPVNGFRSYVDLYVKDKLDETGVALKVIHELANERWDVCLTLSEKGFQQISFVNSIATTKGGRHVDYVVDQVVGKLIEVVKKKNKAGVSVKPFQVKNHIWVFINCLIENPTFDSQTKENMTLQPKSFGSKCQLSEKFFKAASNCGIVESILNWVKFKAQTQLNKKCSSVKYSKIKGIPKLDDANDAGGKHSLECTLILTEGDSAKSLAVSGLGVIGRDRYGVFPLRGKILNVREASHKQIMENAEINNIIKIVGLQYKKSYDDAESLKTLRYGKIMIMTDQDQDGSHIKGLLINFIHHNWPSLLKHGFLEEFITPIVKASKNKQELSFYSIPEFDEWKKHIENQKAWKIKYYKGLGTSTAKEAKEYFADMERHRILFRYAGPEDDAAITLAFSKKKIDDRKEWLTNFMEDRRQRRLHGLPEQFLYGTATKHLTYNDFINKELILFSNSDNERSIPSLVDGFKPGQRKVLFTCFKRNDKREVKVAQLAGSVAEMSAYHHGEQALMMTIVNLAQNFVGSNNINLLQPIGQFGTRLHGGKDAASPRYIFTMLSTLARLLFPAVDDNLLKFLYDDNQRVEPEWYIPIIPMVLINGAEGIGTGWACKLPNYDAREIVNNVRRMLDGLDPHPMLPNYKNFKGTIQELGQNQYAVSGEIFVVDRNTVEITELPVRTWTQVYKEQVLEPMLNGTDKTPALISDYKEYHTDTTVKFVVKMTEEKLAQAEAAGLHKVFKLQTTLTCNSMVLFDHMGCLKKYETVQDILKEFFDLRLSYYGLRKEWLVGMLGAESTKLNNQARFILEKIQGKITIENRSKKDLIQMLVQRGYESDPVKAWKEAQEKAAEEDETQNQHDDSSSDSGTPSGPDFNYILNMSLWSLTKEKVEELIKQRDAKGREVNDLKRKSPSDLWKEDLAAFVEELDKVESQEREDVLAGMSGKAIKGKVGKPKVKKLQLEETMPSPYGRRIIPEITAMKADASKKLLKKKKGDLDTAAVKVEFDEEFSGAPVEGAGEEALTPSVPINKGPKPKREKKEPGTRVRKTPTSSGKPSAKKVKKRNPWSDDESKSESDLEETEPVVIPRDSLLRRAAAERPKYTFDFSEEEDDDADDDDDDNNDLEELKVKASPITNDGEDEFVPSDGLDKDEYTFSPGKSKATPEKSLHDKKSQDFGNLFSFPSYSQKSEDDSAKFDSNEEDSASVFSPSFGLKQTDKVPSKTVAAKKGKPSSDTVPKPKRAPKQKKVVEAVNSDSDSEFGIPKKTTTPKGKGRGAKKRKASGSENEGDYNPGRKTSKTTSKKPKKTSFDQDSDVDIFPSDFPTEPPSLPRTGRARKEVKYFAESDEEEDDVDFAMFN

[2] = target: T2, Mitogen-activated protein kinase kinase kinase kinase 3 (Homo sapiens, UniProt Q8IVH8)
T2 sequence (Q8IVH8 whole entry): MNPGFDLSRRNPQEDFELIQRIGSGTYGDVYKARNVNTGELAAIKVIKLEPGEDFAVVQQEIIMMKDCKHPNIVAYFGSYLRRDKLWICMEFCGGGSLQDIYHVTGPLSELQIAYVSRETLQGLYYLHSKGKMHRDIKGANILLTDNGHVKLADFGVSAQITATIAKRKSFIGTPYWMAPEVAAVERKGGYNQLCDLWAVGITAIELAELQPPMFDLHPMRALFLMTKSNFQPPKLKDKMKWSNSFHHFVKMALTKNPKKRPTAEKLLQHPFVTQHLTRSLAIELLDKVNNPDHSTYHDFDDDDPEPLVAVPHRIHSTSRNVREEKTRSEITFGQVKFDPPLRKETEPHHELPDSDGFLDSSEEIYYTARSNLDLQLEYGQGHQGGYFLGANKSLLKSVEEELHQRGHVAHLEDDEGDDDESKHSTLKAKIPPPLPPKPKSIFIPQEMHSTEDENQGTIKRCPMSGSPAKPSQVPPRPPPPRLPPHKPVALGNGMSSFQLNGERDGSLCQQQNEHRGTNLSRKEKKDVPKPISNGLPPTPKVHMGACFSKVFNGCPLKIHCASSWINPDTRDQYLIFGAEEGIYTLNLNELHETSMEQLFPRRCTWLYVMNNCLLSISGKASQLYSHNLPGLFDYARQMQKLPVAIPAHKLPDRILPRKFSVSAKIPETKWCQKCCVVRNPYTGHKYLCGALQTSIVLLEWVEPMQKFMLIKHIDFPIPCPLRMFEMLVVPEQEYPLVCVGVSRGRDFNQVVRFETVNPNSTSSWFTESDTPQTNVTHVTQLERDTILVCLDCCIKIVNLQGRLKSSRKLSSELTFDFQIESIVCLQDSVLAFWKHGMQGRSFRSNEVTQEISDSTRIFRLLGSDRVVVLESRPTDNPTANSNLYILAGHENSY

[3] = target: Protein kinase C alpha type (Homo sapiens, UniProt P17252)
[4] = target: T3, Phosphatidylinositol 5-phosphate 4-kinase type-2 alpha (Homo sapiens, UniProt P48426)
T3 sequence (P48426 whole entry): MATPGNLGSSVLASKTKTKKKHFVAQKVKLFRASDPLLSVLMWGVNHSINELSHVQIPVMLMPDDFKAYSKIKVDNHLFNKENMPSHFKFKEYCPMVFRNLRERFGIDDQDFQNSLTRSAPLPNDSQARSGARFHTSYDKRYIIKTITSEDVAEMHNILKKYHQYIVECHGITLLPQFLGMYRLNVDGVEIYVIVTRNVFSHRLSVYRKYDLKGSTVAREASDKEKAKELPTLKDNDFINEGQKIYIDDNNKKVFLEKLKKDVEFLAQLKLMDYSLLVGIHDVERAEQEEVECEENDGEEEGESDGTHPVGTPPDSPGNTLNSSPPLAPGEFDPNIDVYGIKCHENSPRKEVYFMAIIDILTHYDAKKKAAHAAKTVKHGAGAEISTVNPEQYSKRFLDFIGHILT

[5] = target: Mitogen-activated protein kinase 10 (Homo sapiens, UniProt P53779)
Mitogen-activated protein kinase 10, sequence (P53779 whole entry): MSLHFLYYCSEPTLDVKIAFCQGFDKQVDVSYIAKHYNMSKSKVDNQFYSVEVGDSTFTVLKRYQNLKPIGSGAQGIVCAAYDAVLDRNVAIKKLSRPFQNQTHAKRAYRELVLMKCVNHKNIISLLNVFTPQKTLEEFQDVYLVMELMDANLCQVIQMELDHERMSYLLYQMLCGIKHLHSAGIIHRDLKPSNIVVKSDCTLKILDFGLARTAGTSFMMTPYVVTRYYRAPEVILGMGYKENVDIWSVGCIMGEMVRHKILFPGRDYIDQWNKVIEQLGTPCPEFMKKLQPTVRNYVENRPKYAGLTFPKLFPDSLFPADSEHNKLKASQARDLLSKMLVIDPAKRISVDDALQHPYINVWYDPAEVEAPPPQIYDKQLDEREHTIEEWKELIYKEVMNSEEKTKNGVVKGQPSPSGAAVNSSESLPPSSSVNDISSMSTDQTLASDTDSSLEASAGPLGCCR

ADP/ATP translocase 3 = target: T4, ADP/ATP translocase 3 (Homo sapiens, UniProt P12236)
T4 sequence (P12236 whole entry): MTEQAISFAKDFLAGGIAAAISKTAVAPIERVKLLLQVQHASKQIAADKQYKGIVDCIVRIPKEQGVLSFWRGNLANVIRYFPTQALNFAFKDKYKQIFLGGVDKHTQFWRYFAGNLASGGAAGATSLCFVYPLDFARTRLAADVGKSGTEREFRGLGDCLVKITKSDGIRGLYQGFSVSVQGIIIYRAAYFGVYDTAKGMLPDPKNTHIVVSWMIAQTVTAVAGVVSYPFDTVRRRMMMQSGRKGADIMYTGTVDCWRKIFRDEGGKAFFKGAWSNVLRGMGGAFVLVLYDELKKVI

[6] = target: T5, Dual specificity mitogen-activated protein kinase kinase 6 (Homo sapiens, UniProt P52564)
T5 sequence (P52564 whole entry): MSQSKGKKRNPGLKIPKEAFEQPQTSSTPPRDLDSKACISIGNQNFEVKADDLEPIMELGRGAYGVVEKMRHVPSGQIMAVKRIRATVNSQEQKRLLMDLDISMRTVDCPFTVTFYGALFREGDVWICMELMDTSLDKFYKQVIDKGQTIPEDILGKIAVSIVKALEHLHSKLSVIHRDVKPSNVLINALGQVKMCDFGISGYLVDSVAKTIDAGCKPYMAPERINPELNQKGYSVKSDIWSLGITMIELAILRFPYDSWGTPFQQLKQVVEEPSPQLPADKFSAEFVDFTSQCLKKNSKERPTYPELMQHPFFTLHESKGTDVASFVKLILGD

[7] = target: ATP-dependent RNA helicase DDX3X (Homo sapiens, UniProt O00571)
ATP-dependent RNA helicase DDX3X, sequence (O00571 whole entry): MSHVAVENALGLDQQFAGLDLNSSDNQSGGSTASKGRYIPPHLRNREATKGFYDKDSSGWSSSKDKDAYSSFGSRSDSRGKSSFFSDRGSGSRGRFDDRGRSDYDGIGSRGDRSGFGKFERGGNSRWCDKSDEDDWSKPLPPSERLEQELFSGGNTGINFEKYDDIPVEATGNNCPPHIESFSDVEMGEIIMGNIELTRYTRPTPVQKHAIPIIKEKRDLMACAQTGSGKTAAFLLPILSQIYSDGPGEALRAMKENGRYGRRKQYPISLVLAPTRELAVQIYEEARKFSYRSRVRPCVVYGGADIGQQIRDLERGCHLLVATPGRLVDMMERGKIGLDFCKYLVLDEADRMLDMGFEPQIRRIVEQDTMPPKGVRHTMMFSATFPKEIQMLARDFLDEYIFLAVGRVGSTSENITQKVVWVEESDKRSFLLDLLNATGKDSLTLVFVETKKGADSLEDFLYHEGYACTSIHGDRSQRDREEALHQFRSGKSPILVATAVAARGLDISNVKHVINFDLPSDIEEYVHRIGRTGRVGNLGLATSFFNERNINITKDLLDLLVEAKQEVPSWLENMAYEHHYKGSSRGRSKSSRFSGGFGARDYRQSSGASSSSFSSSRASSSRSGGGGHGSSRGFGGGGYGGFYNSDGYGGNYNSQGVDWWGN
Further: in the data inactive means no Kd found up to 30 µM.

| SMILES | Kd [1] | Kd (DNA topoisomerase 2-beta) | Kd [2] | Kd [3] | Kd [4] | Kd [5] | Kd (ADP/ATP translocase 3) | Kd [6] | Kd [7] |
| --- | --- | --- | --- | --- | --- | --- | --- | --- | --- |
| CCOc1ccn(-c2ccc(F)cc2)c(=O)c1C(=O)Nc1ccc(Oc2ccnc(N)c2Cl)c(F)c1 [BMS-777607] | > 30 µM (inactive) | > 30 µM (inactive) | > 30 µM (inactive) | > 30 µM (inactive) | > 30 µM (inactive) | > 30 µM (inactive) | > 30 µM (inactive) | > 30 µM (inactive) | > 30 µM (inactive) |
| Cc1c(Cn2c(C)nc3c(C(=O)O)cc(N4CCOCC4)cc32)cccc1C(F)(F)F [GSK-2636771] | > 30 µM (inactive) | > 30 µM (inactive) | > 30 µM (inactive) | > 30 µM (inactive) | > 30 µM (inactive) | > 30 µM (inactive) | > 30 µM (inactive) | > 30 µM (inactive) | > 30 µM (inactive) |
| Cn1cc(-c2[nH]c3cc(NC(=O)[C@H](N)C4CCCCC4)cc4c3c2C=NNC4=O)cn1 | > 30 µM (inactive) | > 30 µM (inactive) | 1.54 µM (active) | > 30 µM (inactive) | > 30 µM (inactive) | > 30 µM (inactive) | > 30 µM (inactive) | > 30 µM (inactive) | > 30 µM (inactive) |
| COc1cc2ncnc(Nc3ccc(F)c(Cl)c3)c2cc1NC(=O)/C=C/CN1CCCCC1 [DACOMITINIB ANHYDROUS] | > 30 µM (inactive) | > 30 µM (inactive) | > 30 µM (inactive) | > 30 µM (inactive) | > 30 µM (inactive) | > 30 µM (inactive) | > 30 µM (inactive) | > 30 µM (inactive) | > 30 µM (inactive) |
| COc1cc(F)c(F)c(Nc2ccc(I)cc2F)c1NS(=O)(=O)C1(C[C@H](O)CO)CC1 [REFAMETINIB] | > 30 µM (inactive) | > 30 µM (inactive) | > 30 µM (inactive) | > 30 µM (inactive) | > 30 µM (inactive) | 0.036 µM (active) | > 30 µM (inactive) | > 30 µM (inactive) | > 30 µM (inactive) |
| COc1cc2ncnc(Nc3ccc(O)cc3)c2cc1OC [WHI-P131] | > 30 µM (inactive) | > 30 µM (inactive) | > 30 µM (inactive) | > 30 µM (inactive) | > 30 µM (inactive) | > 30 µM (inactive) | > 30 µM (inactive) | > 30 µM (inactive) | > 30 µM (inactive) |
| C=CC(=O)Nc1cc(Nc2nccc(-c3cn(C)c4ccccc34)n2)c(OC)cc1N(C)CCN(C)C [OSIMERTINIB] | > 30 µM (inactive) | > 30 µM (inactive) | > 30 µM (inactive) | > 30 µM (inactive) | > 30 µM (inactive) | > 30 µM (inactive) | > 30 µM (inactive) | > 30 µM (inactive) | > 30 µM (inactive) |
| FC(F)(F)c1ccc(CNc2ccc(Cc3c[nH]c4ncc(Cl)cc34)cn2)cn1 [PEXIDARTINIB] | > 30 µM (inactive) | > 30 µM (inactive) | > 30 µM (inactive) | > 30 µM (inactive) | > 30 µM (inactive) | > 30 µM (inactive) | > 30 µM (inactive) | > 30 µM (inactive) | > 30 µM (inactive) |
| COc1ccc2c(OCc3nnc4ccc(-c5ccccc5)nn34)ccnc2c1 [AMG-208] | > 30 µM (inactive) | > 30 µM (inactive) | > 30 µM (inactive) | > 30 µM (inactive) | > 30 µM (inactive) | > 30 µM (inactive) | > 30 µM (inactive) | > 30 µM (inactive) | > 30 µM (inactive) |
| O=S(=O)(c1cccc2cnccc12)N1CCCNCC1 [FASUDIL] | > 30 µM (inactive) | > 30 µM (inactive) | > 30 µM (inactive) | > 30 µM (inactive) | > 30 µM (inactive) | > 30 µM (inactive) | > 30 µM (inactive) | > 30 µM (inactive) | > 30 µM (inactive) |
| CC1(COc2ccc3c(c2)ncn3-c2ccc3cccc(N4CCC(N)CC4)c3n2)COC1 [CRENOLANIB] | > 30 µM (inactive) | > 30 µM (inactive) | 0.406 µM (active) | > 30 µM (inactive) | > 30 µM (inactive) | > 30 µM (inactive) | > 30 µM (inactive) | > 30 µM (inactive) | > 30 µM (inactive) |

Source: ChEMBL document CHEMBL3991601, “The target landscape of clinical kinase drugs” (Science, 2017)
